According to ChEMBL document CHEMBL4043239, “Discovery and optimization of oxadiazole-based FLAP inhibitors” (Bioorg Med Chem Lett, 2017):
In brackets after ≈: the same amount, converted by molar mass.

How the values were obtained:
[1] = Stability in human liver microsomes at 1 uM pretreated for 10 mins followed by NADPH addition after 60 mins by LC/MS analysis relative to hepatic blood flow; assay type: ADME, microsome; details: read-out: Stability
[2] = Aqueous kinetic solubility of the compound at pH 7.4; assay type: physicochemical; details: for solubility kinetic: aqueous, read-out: Kinetic_solubility; for Kinetic_solubility: buffer
[3] = molecular target: T1, hERG (KCNH2) (Homo sapiens, UniProt Q12809); assay: Inhibition of human ERG expressed in CHO cells at 16 uM at -70mV holding potential measured after 300 secs by IonWorks electrophysiology method relative to control; assay type: cell-based; details: CHO cells expressing human ERG
[4] = molecular target: T2, Arachidonate 5-lipoxygenase-activating protein (Homo sapiens, UniProt P20292); assay: Displacement of [125I]-L-691831 from human FLAP expressed in Sf9 cell membranes after 2 hrs by Topcount method
T2 sequence (P20292 whole entry): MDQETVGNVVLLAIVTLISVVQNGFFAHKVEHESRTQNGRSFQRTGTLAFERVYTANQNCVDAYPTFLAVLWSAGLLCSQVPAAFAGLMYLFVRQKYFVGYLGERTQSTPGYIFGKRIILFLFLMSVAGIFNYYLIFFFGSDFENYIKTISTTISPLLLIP

[5] = molecular target: T2, Arachidonate 5-lipoxygenase-activating protein; assay: Inhibition of FLAP in calcimycin-stimulated human whole blood assessed as reduction in LTB4 production pretreated for 15 mins followed by calcimycin addition after 30 mins by ELISA
[6] = Mean residence time in Wistar rat at 1 mg/kg, iv by HPLC-MS/MS analysis; assay type: ADME, organism-based; details: in vivo
[7] = molecular target: T1, hERG (KCNH2); assay: Inhibition of human ERG expressed in CHO cells at 34 uM at -70mV holding potential measured after 300 secs by IonWorks electrophysiology method relative to control; assay type: cell-based; details: CHO cells expressing human ERG
[8] = Aqueous equilibrium solubility in citric acid/disodium phosphate buffer at pH 6.8 at 1 uM after 24 hrs by HPLC method; assay type: physicochemical; details: for solubility thermodynamic at 24 h, 1 µM: citric acid/disodium phosphate buffer, pH 6.8; for solubility: buffer, pH 6.8, 24 h, 1 µM
[9] = system: Rattus norvegicus; assay: Clearance in Wistar rat at 1 mg/kg, iv by HPLC-MS/MS analysis relative to hepatic blood flow; assay type: ADME, organism-based; details: in vivo
[10] = molecular target: T1, hERG (KCNH2); assay: Inhibition of human ERG expressed in HEK293 cells at 34 uM by whole-cell patch clamp method relative to control; assay type: cell-based; details: HEK293 cells expressing human ERG
[11] = Oral bioavailability in Wistar rat at 3 mg/kg by HPLC-MS/MS analysis; assay type: ADME, organism-based; details: in vivo
[12] = Volume of distribution at steady state in Wistar rat at 1 mg/kg, iv by HPLC-MS/MS analysis; assay type: ADME, organism-based; details: in vivo, read-out: Vdss
[13] = Clearance in human hepatocytes at 1 uM measured after 1 hr by LC/MS analysis relative to hepatic blood flow; assay type: ADME, cell-based, Hepatocyte
[14] = molecular target: T1, hERG (KCNH2); assay: Inhibition of human ERG expressed in HEK293 cells at 37 uM by whole-cell patch clamp method relative to control; assay type: cell-based; details: HEK293 cells expressing human ERG
[15] = molecular target: T3, Arachidonate 5-lipoxygenase-activating protein (Homo sapiens) (UniProt P20292); assay: Ratio of IC50 for FLAP in calcimycin-stimulated human whole blood to IC50 for displacement of [125I]-L-691831 from human FLAP expressed in Sf9 cell membranes
T3 sequence (whole entry): T2 sequence (P20292 whole entry)

[16] = molecular target: T1, hERG (KCNH2); assay: Inhibition of human ERG expressed in CHO cells at 9 uM at -70mV holding potential measured after 300 secs by IonWorks electrophysiology method relative to control; assay type: cell-based; details: CHO cells expressing human ERG
[17] = molecular target: T1, hERG (KCNH2); assay: Inhibition of human ERG expressed in CHO cells at 14 uM at -70mV holding potential measured after 300 secs by IonWorks electrophysiology method relative to control; assay type: cell-based; details: CHO cells expressing human ERG
[18] = molecular target: T1, hERG (KCNH2); assay: Inhibition of human ERG expressed in CHO cells at 11 uM at -70mV holding potential measured after 300 secs by IonWorks electrophysiology method relative to control; assay type: cell-based; details: CHO cells expressing human ERG
[19] = molecular target: T1, hERG (KCNH2); assay: Inhibition of human ERG expressed in CHO cells at 17 uM at -70mV holding potential measured after 300 secs by IonWorks electrophysiology method relative to control; assay type: cell-based; details: CHO cells expressing human ERG
[20] = molecular target: T1, hERG (KCNH2); assay: Inhibition of human ERG expressed in CHO cells at 12 uM at -70mV holding potential measured after 300 secs by IonWorks electrophysiology method relative to control; assay type: cell-based; details: CHO cells expressing human ERG

T1 sequence (Q12809 whole entry): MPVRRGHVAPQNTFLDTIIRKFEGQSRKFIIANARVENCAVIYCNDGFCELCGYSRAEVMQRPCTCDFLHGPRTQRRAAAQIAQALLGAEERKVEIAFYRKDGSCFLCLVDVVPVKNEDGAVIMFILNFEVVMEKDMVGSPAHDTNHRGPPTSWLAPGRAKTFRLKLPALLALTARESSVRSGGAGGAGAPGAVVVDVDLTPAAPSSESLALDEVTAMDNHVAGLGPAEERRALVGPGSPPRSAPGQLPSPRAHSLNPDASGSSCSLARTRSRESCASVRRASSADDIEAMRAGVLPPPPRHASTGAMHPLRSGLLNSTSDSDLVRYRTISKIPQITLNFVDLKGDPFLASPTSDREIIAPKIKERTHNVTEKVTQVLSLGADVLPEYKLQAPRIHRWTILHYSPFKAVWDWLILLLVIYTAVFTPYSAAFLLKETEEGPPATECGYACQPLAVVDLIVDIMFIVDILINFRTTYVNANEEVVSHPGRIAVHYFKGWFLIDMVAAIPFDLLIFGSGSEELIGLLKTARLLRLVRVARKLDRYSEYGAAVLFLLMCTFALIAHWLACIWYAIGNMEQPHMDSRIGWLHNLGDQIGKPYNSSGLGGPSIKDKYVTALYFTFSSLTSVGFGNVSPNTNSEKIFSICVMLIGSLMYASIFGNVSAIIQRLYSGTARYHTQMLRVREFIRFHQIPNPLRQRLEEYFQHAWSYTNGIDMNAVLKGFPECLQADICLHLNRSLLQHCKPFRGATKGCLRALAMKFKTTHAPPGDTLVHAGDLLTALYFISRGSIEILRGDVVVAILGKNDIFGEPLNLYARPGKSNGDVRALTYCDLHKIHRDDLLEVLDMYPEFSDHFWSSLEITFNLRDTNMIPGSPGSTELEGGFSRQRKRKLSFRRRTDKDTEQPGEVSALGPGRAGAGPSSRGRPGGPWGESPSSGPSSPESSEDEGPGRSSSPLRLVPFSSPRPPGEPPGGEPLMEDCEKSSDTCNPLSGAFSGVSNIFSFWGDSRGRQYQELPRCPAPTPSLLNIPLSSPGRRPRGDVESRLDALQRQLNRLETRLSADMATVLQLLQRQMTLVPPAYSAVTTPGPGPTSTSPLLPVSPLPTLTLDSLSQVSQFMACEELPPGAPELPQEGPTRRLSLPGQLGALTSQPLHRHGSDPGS

| SMILES | hepatic extraction ratio at 1 h, 1 µM [1] | solubility kinetic [2] | IC50 [4] | IC50 [5] | Ratio IC50 [15] | further results |
| --- | --- | --- | --- | --- | --- | --- |
| CC1(O)CCN(c2nc(C3(c4ccc(-c5cnc(N)nc5)cc4)CCC3)no2)CC1 | 0.29 | > 40 µg/mL | 17 nM | 87 nM | – | inhibition at 5 min, 16 µM [3]: 45% |
| C[C@@](c1ccc(-c2cnc(N)nc2)cc1)(c1noc(N2CCC(O)CC2)n1)C1CC1 | – | – | – | – | – | MRT [6]: 1.6 h; inhibition at 5 min, 34 µM [7]: 30%; solubility thermodynamic at 24 h, 1 µM [8]: 111 µg/mL (≈ 273 µM); CL [9]: 33%; inhibition at 34 µM [10]: 30%; bioavailability [11]: 75%; Vd [12]: 1.6 L/kg |
| CC(C)[C@](C)(c1ccc(-c2cnc(N)nc2)nc1)c1noc(-c2cnn(CC#N)c2)n1 | < 0.24 | – | 23 nM | 40 nM | – | hepatic extraction ratio at 1 h, 1 µM [13]: 0.31; inhibition at 37 µM [14]: 38% |
| Nc1ncc(-c2ccc(C3(c4noc(N5CCN(CC6CCCO6)CC5)n4)CCC3)cc2)cn1 (stereo not given) | 0.49 | 26 µg/mL (≈ 56.3 µM) | 92 nM | 182 nM | 2 | – |
| Nc1ncc(-c2ccc(C3(c4noc(N5CC[C@H](O)C5)n4)CCC3)cc2)cn1 | < 0.24 | > 37 µg/mL | – | 202 nM | 6 | – |
| CN(c1cnn(C)c1)c1nc([C@@](C)(c2ccc(-c3cnc(N)nc3)cc2)C2CC2)no1 | 0.34 | – | 29 nM | 92 nM | – | solubility [8]: Soluble; inhibition at 5 min, 9 µM [16]: 45%; Kinetic_solubility [2]: Soluble |
| CC(C)(O)CN1CCN(c2nc([C@@](C)(c3ccc(-c4cnc(N)nc4)cc3)C3CC3)no2)CC1 | 0.36 | – | 53 nM | 99 nM | – | solubility [8]: Soluble; inhibition at 5 min, 14 µM [17]: 26%; Kinetic_solubility [2]: Soluble |
| CC(C)(O)Cn1cc(-c2nc(C3(c4ccc(-c5cnc(N)nc5)nc4)CCC3)no2)cn1 | < 0.24 | > 43 µg/mL | – | 124 nM | – | solubility thermodynamic at 24 h, 1 µM [8]: 45 µg/mL (≈ 104 µM); inhibition at 5 min, 11 µM [18]: < 10%; hepatic extraction ratio at 1 h, 1 µM [13]: 0.5 |
| CC1(O)CN(c2nc([C@@](C)(c3ccc(-c4cnc(N)nc4)cc3)C3CC3)no2)C1 | < 0.24 | – | 16 nM | 72 nM | – | solubility [8]: Soluble; inhibition at 5 min, 11 µM [18]: 13%; Kinetic_solubility [2]: Soluble |
| Nc1ncc(-c2ccc(C3(c4noc(-c5cnn(C6COC6)c5)n4)CCC3)cc2)cn1 | – | > 41 µg/mL | – | – | – | inhibition at 5 min, 11 µM [18]: 43% |
| Nc1ncc(-c2ccc(C3(c4noc(N5CCCC5)n4)CCC3)cc2)cn1 | – | 16 µg/mL (≈ 44.1 µM) | – | 467 nM | 56 | – |
| Nc1ncc(-c2ccc(C3(c4noc(N5CCC(O)CC5)n4)CCC3)cc2)cn1 | < 0.24 | > 39 µg/mL | – | 118 nM | 7 | inhibition at 5 min, 17 µM [19]: 40% |
| Nc1ncc(-c2ccc(C3(c4noc(N5CC(O)C5)n4)CCC3)cc2)cn1 | < 0.24 | > 36 µg/mL | 160 nM | 315 nM | 2 | inhibition at 5 min, 12 µM [20]: 18% |
| Cn1cc(-c2nc(C3(c4ccc(-c5cnc(N)nc5)nc4)CCC3)no2)cn1 | 0.19 | 24 µg/mL (≈ 64.1 µM) | – | 270 nM | – | inhibition at 5 min, 11 µM [18]: 11% |
